Among the test systems are A549; COLO 205; HCT-116; HL-60; HOP-92; IGROV-1; KM12; Malme-3M; NCI-H23; OVCAR-3; OVCAR-8; RPMI-8226; SF-295; SK-OV-3; SNB-19; UACC-257; UO-31; CAKI-1; HCT-15; LOX IMVI.
Common to all, as to assay: NCI tumour cell line growth inhibition, 48 h

Consider eleven compounds from ChEMBL document CHEMBL1201862, “PubChem BioAssay data set” (2004).

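96-well plates; 48 h exposure; 5 concentrations. Endpoints by linear interpolation between flanking doses. Not reached: highest tested concentration assigned. The concentration for 50% growth inhibition is given as GI50.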 Active and inactive are the calls of the source. Rule as the data show it: active = GI50 up to about 1.1 µM and inactive = higher.

Turning to `O=C(NN1C(=O)C(Cl)C1c1cccc([N+](=O)[O-])c1)c1ccccc1O` (stereo not drawn), the GI50 in the assay on A549 is > 100 µM (inactive); with COLO 205, > 100 µM (inactive); with HCT-116 it was > 100 µM (inactive); in the assay on HL-60, > 100 µM (inactive); in the assay on HOP-92, > 100 µM (inactive); in the assay with IGROV-1, 76.4 µM (inactive). Moreover, the GI50 with KM12 is > 100 µM (inactive); with Malme-3M, 59.8 µM (inactive); in the assay with NCI-H23, > 100 µM (inactive); in the assay on OVCAR-3 it was > 100 µM (inactive); in the assay with OVCAR-8 it was > 100 µM (inactive); in the assay on RPMI-8226 it was > 100 µM (inactive). Moreover, the GI50 in the assay with SF-295 is > 100 µM (inactive); with SK-OV-3, > 100 µM (inactive); in the assay on SNB-19, 68.5 µM (inactive); with UACC-257, > 100 µM (inactive); in the assay with UO-31, 71.9 µM (inactive).
`Cc1ccc(S(=O)(=O)NNC2Oc3cc4c(cc3C(c3ccccc3O)C2C)OCO4)cc1` (stereo not drawn): the GI50 in the assay with A549 is 8.36 µM (inactive); in the assay on CAKI-1 it was 11.5 µM (inactive); in the assay on COLO 205 it was 14.7 µM (inactive); with HCT-116, 10.4 µM (inactive); in the assay on HCT-15 it was 4.9 µM; in the assay on HL-60, 18.4 µM (inactive). Further, the GI50 in the assay with HOP-92 is 17.1 µM (inactive); in the assay with IGROV-1, 12.4 µM (inactive); in the assay with KM12 it was 12.2 µM (inactive); in the assay on LOX IMVI, 15.2 µM (inactive); with Malme-3M, 12.2 µM (inactive); in the assay on NCI-H23, 15.7 µM (inactive). Besides, the GI50 was 11.4 µM (inactive) in the assay with OVCAR-3; 12.2 µM (inactive) with RPMI-8226; 11.6 µM (inactive) with SF-295; 21.7 µM (inactive) with SK-OV-3; 12.7 µM (inactive) in the assay on SNB-19; 10.8 µM (inactive) with UACC-257. Also, the GI50 with UO-31 is 11 µM (inactive).
Consider `Cn1c(=O)ccc2c(=O)c3ccccc3oc21`, for which the GI50 with A549 was > 100 µM (inactive); with CAKI-1, > 100 µM (inactive); in the assay on COLO 205, > 100 µM (inactive); in the assay with HCT-116, > 100 µM (inactive); with HCT-15 it was above 100 µM; in the assay with HL-60 it was > 100 µM (inactive). In addition, the GI50 is 67.6 µM (inactive) with HOP-92; > 100 µM (inactive) in the assay with IGROV-1; > 100 µM (inactive) in the assay on KM12; > 100 µM (inactive) in the assay on LOX IMVI; > 100 µM (inactive) in the assay on Malme-3M; > 100 µM (inactive) in the assay with NCI-H23. Also, the GI50 in the assay on OVCAR-3 was > 100 µM (inactive); in the assay with OVCAR-8, > 100 µM (inactive); with SF-295, > 100 µM (inactive); with SK-OV-3 it was > 100 µM (inactive); in the assay on SNB-19 it was > 100 µM (inactive); with UO-31, 4.68 µM (inactive).
As for `COc1cc2c(c(OC)c1OC)-c1[nH]ncc1CC2`, the GI50 is > 100 µM (inactive) in the assay with A549; 60.7 µM (inactive) with CAKI-1; > 100 µM (inactive) in the assay on COLO 205; > 100 µM (inactive) with HCT-116; above 100 µM with HCT-15; > 100 µM (inactive) in the assay with HL-60. Besides, the GI50 with HOP-92, in the assay on IGROV-1, with KM12, in the assay with LOX IMVI, in the assay with Malme-3M and in the assay with NCI-H23 was > 100 µM (inactive) each time. Moreover, the GI50 in the assay with OVCAR-3, in the assay with OVCAR-8, with SF-295, with SK-OV-3, with SNB-19 and in the assay on UACC-257 was > 100 µM (inactive) throughout. Also, the GI50 with UO-31 is > 100 µM (inactive).
With `O=C(/C=C/CC(O)(c1ccccc1)c1ccccc1)Nc1ccccc1Cl`, the GI50 was > 100 µM (inactive) in the assay on CAKI-1; > 100 µM (inactive) in the assay on COLO 205; > 100 µM (inactive) in the assay with HCT-116; above 100 µM in the assay on HCT-15; > 100 µM (inactive) with HL-60; > 100 µM (inactive) in the assay on HOP-92. In addition, the GI50 in the assay on KM12 was > 100 µM (inactive); in the assay on Malme-3M, 45.3 µM (inactive); in the assay on NCI-H23, > 100 µM (inactive); with OVCAR-3, > 100 µM (inactive); with OVCAR-8, > 100 µM (inactive); with RPMI-8226, > 100 µM (inactive). The GI50 in the assay with SF-295, in the assay with SK-OV-3, in the assay on SNB-19, with UACC-257 and with UO-31 was > 100 µM (inactive) throughout.
`NC(CCOCCP(=O)(O)CCC1C=CC=CC1)C(=O)O` (stereo not drawn): the GI50 in the assay on A549 was > 100 µM (inactive); in the assay with CAKI-1, > 100 µM (inactive); in the assay with COLO 205, > 100 µM (inactive); in the assay with HCT-116, > 100 µM (inactive); in the assay on HCT-15, above 100 µM; in the assay on HL-60, > 100 µM (inactive). Also, the GI50 is > 100 µM (inactive) in the assay with HOP-92; > 100 µM (inactive) in the assay on IGROV-1; > 100 µM (inactive) in the assay with KM12; 73.5 µM (inactive) in the assay on LOX IMVI; > 100 µM (inactive) in the assay on NCI-H23; > 100 µM (inactive) with OVCAR-3. In addition, the GI50 with OVCAR-8, in the assay on RPMI-8226, with SF-295, in the assay with SK-OV-3, in the assay with SNB-19 and in the assay with UACC-257 was > 100 µM (inactive) in each case. The GI50 in the assay on UO-31 was > 100 µM (inactive).
Turning to `NC1C2C=CC(C2)C1C(=O)O` (stereo not drawn), the GI50 in the assay on A549 was > 100 µM (inactive); in the assay on CAKI-1 it was > 100 µM (inactive); with COLO 205 it was > 100 µM (inactive); with HCT-116, > 100 µM (inactive); with HCT-15 it was above 100 µM; in the assay on HL-60, > 100 µM (inactive). The GI50 in the assay on HOP-92, in the assay on IGROV-1, in the assay with KM12, with LOX IMVI, in the assay with Malme-3M and with NCI-H23 was > 100 µM (inactive) each time. Moreover, the GI50 in the assay on OVCAR-3, with OVCAR-8, in the assay with RPMI-8226, in the assay on SF-295, in the assay on SK-OV-3 and with SNB-19 was > 100 µM (inactive) throughout. In the assay with UO-31, the GI50 is > 100 µM (inactive).
In the case of `CC(=O)O[C@H]1[C@@H](OC(C)=O)C(C)(C)/C=C/[C@H](C)C(=O)[C@@]2(OC(C)=O)C[C@@](C)(OC(C)=O)[C@H](OC(C)=O)[C@@H]2[C@H]2OC(=O)CC[C@@]2(OC(=O)c2ccccc2)[C@@H]1OCC(C)C`, the GI50 in the assay on CAKI-1 is 8.73 µM (inactive); in the assay on COLO 205 it was 5.15 µM (inactive); in the assay with HCT-116, 19.5 µM (inactive); in the assay on HCT-15 it was above 100 µM; in the assay on HL-60, 4.11 µM (inactive); with HOP-92 it was 0.977 µM (active). Further, the GI50 is 68.5 µM (inactive) with IGROV-1; 39.1 µM (inactive) with KM12; > 100 µM (inactive) in the assay on LOX IMVI; 22.9 µM (inactive) in the assay with Malme-3M; 38.7 µM (inactive) with NCI-H23; > 100 µM (inactive) in the assay with OVCAR-3. The GI50 in the assay on OVCAR-8 is > 100 µM (inactive); in the assay with SF-295, 3.63 µM (inactive); in the assay with SK-OV-3, > 100 µM (inactive); in the assay with SNB-19, > 100 µM (inactive); in the assay on UACC-257, 85.1 µM (inactive); in the assay with UO-31, 22.2 µM (inactive).
As for `CC1(C)C(=O)/C=C\C(=O)C(C)(C)C2=CC=C(O2)C(C)(C)C(=O)C(Br)C(Br)C(=O)C(C)(C)C2=CC=C1O2` (stereo not drawn), the GI50 in the assay with A549 was > 100 µM (inactive); with CAKI-1, 58.6 µM (inactive); in the assay with COLO 205 it was > 81.8 µM (inactive); with HCT-116 it was 17.9 µM (inactive); with HCT-15, 53.1 µM; in the assay with HL-60, 4.76 µM (inactive). Also, the GI50 in the assay with HOP-92 is > 21.5 µM (inactive); in the assay on IGROV-1 it was > 52.6 µM (inactive); in the assay on KM12, 71.8 µM (inactive); with LOX IMVI, 23 µM (inactive); with Malme-3M, 49.9 µM (inactive); in the assay on NCI-H23, 48.5 µM (inactive). Moreover, the GI50 in the assay on OVCAR-3 was 29.9 µM (inactive); in the assay with OVCAR-8 it was 12 µM (inactive); in the assay on RPMI-8226 it was 2.58 µM (inactive); with SF-295, > 100 µM (inactive); with SK-OV-3, > 100 µM (inactive); in the assay with SNB-19, > 100 µM (inactive). The GI50 is 83.8 µM (inactive) with UACC-257 and > 92.3 µM (inactive) in the assay with UO-31.
As to `C=C1CC(OC)(C(O)C(=O)N[C@H]2OCO[C@H]3C2O[C@H](C[C@@H](CO)OC)C(C)(C)C3OC)O[C@H](C)[C@@H]1C` (stereo partly drawn), the GI50 in the assay on A549 was < 0.00931 µM (active); in the assay with CAKI-1, < 0.00931 µM (active); in the assay with COLO 205 it was < 0.00931 µM (active); in the assay on HCT-116, < 0.00931 µM (active); in the assay with HCT-15, below 0.00931 µM; in the assay on HL-60 it was < 0.00931 µM (active). In addition, the GI50 with HOP-92, in the assay with IGROV-1, in the assay with KM12, in the assay on LOX IMVI, with NCI-H23 and in the assay on OVCAR-3 was < 0.00931 µM (active) each time. Moreover, the GI50 in the assay with OVCAR-8, in the assay on RPMI-8226, with SF-295, in the assay on SK-OV-3, with SNB-19 and in the assay with UACC-257 was < 0.00931 µM (active) throughout. In addition, the GI50 with UO-31 was < 0.00931 µM (active).
Take `Cn1c(=O)nc2n(-c3ccc(Cl)cc3Cl)c3ccccc3nc-2c1=O`: the GI50 with A549 was 1.62 µM (inactive); in the assay on CAKI-1, 3.08 µM (inactive); with COLO 205, 1.7 µM (inactive); with HCT-116, 2.18 µM (inactive); in the assay on HCT-15, 3.05 µM; with HL-60 it was 3.18 µM (inactive). In addition, the GI50 in the assay with HOP-92 is 7.21 µM (inactive); in the assay on IGROV-1 it was 12.8 µM (inactive); in the assay with KM12, 3.96 µM (inactive); in the assay with Malme-3M it was 1.24 µM (inactive); with NCI-H23, 3.27 µM (inactive); in the assay with OVCAR-3, 2.1 µM (inactive). Also, the GI50 in the assay with OVCAR-8 is 2.74 µM (inactive); in the assay on RPMI-8226 it was 15.4 µM (inactive); in the assay with SF-295, 2.33 µM (inactive); with SK-OV-3 it was 30.8 µM (inactive); in the assay with SNB-19, 13.7 µM (inactive); in the assay on UO-31, 12 µM (inactive).
